Test results published in paper PMC6419574 (Bioorganic & Medicinal Chemistry Letters, 2019).

Legend:
[1] = molecular target: T1, fascin (Homo sapiens, UniProt Q16658); conditions: for Ligand efficiency: from SPR Kd
[2] = molecular target: T1, fascin; experiment: biochemical; conditions: SPR Kd
[3] = molecular target: T1, fascin; experiment: Isothermal titration calorimetry; format: binding; conditions: 150 µM compound in syringe, 15 µM fascin in cell, Fig. 3B
[4] = molecular target: T1, fascin; format: biochemical

SMILES | Ligand efficiency [1] | inhibition of fascin in the bundling assay (in words) [4] | also measured
Cn1cc(NC(=O)c2cn(Cc3ccc(Cl)cc3)c(=O)c3ccccc23)cn1 [Compound 5, 2-(4-chlorobenzyl)-N-(1-methyl-1H-pyrazol-4-yl)-1-oxo-1,2-dihydroisoquinoline-4-carboxamide] |  |  | increase in binding affinity compared to 3 ([1]; SPR Kd ratio vs compound 3): ≈ 14 fold
O=C(Nc1ccncc1)c1cn(Cc2ccc(Cl)c(Cl)c2)c(=O)c2cnn(C3CCNCC3)c12 [Compound 28, 5-(3,4-dichlorobenzyl)-4-oxo-1-(piperidin-4-yl)-N-(pyridin-4-yl)-4,5-dihydro-1H-pyrazolo[4,3-c]pyridine-7-carboxamide] | 0.29 |  | Kd [2]: 85 ± 0.02 nM; ITC stoichiometry N [3]: 1.05 ± 0.01
O=c1c2cnn(C3CCS(=O)(=O)C3)c2ncn1Cc1ccc(Cl)c(Cl)c1 (stereo not drawn) [Compound 2, 5-(3,4-dichlorobenzyl)-1-(1,1-dioxidotetrahydrothiophen-3-yl)-1,5-dihydro-4H-pyrazolo[3,4-d]pyrimidin-4-one, reference compound] |  | inhibit fascin | improvement of fascin affinity over truncated compound 25 [1]: 23 fold
CC(=O)N(C)c1ccc(Cl)cc1Cl [Compound 1, N-(2,4-dichlorophenyl)-N-methylacetamide] | 0.43 | Unlike compound 1, both 2 and 3 inhibit fascin | 
Cn1cc(NC(=O)c2cn(Cc3ccccc3)c(=O)c3ccccc23)cn1 [Compound 3, 2-benzyl-N-(1-methylpyrazol-4-yl)-1-oxo-isoquinoline-4-carboxamide] |  | inhibit fascin | 
